From publication PMC3553074 (PLoS ONE, 2013)
Converted amounts (≈) assume the structure as drawn. Where a name gives a salt, the structure may show the parent alone. Read-outs that look alike come from different tables or passages of the source.

What was measured:
[1] = tested on: E. coli; assay: microbe, parasite or virus in culture; conditions: Escherichia coli, read-out: E. coli MIC (mM)
[2] = target: T1, Ft-MglA (Francisella tularensis, UniProt Q5NFG1); assay: biochemical
[3] = target: T2, Ec-SspA (Escherichia coli, UniProt P0ACA3); assay: biochemical; parameters: differential scanning fluorometry with SYPRO Orange, shift of midpoint transition temperature of purified protein
T2 construct: His-tagged from pCA24N-sspA (ASKA library clone), expressed in E. coli
T2 sequence (P0ACA3 2-212): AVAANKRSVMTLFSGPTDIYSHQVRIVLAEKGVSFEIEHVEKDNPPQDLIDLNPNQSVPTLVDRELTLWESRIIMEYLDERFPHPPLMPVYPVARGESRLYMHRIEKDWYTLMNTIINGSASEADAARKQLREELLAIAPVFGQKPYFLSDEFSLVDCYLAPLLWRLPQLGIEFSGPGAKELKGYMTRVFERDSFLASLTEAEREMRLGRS

[4] = target: T2, Ec-SspA; assay: biochemical
[5] = target: T1, Ft-MglA; assay: biochemical; conditions: read-out: ΔTm (°C) ^1
[6] = target: F. tularensis SCHU S4 SspA fused to the zinc finger DNA binding domain of murine Zif268 (pACTR-sspA-Zif) (F. tularensis SCHU S4); assay: two-hybrid
[7] = read-out: ΔTm (°C) ^1 / Ec-SspA
[8] = read-out: ΔTm (°C) ^1 / Ft-MglA

Compound: C[C@H]1[C@H](C)CC[C@]2(C(=O)O)CC[C@]3(C)C(=CC[C@@H]4[C@@]5(C)CC[C@H](O)C(C)(C)[C@@H]5CC[C@]43C)[C@H]12 [Ursolic acid]
- MIC [1]: 1 mM (≈ 457 µg/mL)
- ΔTm at 40 µM ([2]; read-out: ΔTm (°C) ^1): 16.3 ± 3.2 °C

Compound: Cc1c(Cl)cccc1Nc1ccccc1C(=O)O [Tolfenamic acid]
- MIC [1]: 1 mM (≈ 262 µg/mL)
- ΔTm at 40 µM ([3]; read-out: ΔTm (°C) ^1): 11.6 ± 2.7 °C

Compound: CC1=C(/C=C/C(C)=C/C=C/C(C)=C/C(=O)O)C(C)(C)CCC1 [Retinoic acid]
- MIC [1]: 0.5 mM (≈ 150 µg/mL)
- ΔTm at 40 µM [4, 7]: 23.3 ± 3.2 °C
- ΔTm at 40 µM [2, 8]: 24.5 ± 3.9 °C

Compound: COC(=O)C1=CCCN(C)C1 [Arecoline hydrobromide]
- MIC [1]: 0.1 mM
- ΔTm at 40 µM [5]: 2.8 ± 0.1 °C

Compound: Cc1c(N(C)CS(=O)(=O)O)c(=O)n(-c2ccccc2)n1C [Dipyrone]
- MIC [1]: 1 mM (≈ 311 µg/mL)
- ΔTm at 40 µM ([3]; read-out: ΔTm (°C) ^1): 8.9 ± 1.5 °C

Compound: F. tularensis SCHU S4 MglA fused to the ω subunit of E. coli RNA polymerase (pBR-mglA-ω) (natural protein)
- decrease of β-galactosidase activity (%) with arecoline hydrobromide [6]: 7.8%
- decrease of β-galactosidase activity (%) with benzbromarone [6]: 5.8%
- decrease of β-galactosidase activity (%) with benzethonium chloride [6]: 18.9%
- decrease of β-galactosidase activity (%) with captopril [6]: 16.2%
- decrease of β-galactosidase activity (%) with diethylcarbamazine citrate [6]: 19.3%
- decrease of β-galactosidase activity (%) with dipyrone [6]: 10.3%
- decrease of β-galactosidase activity (%) with flumequine [6]: 12%
- decrease of β-galactosidase activity (%) with haloperidol [6]: 18%
- decrease of β-galactosidase activity (%) with meclofenamic acid [6]: 13.2%
- decrease of β-galactosidase activity (%) with nabumetone [6]: 17.1%
- decrease of β-galactosidase activity (%) with pamoic acid [6]: 15.5%
- decrease of β-galactosidase activity (%) with proparacaine hydrochloride [6]: 9.8%
- decrease of β-galactosidase activity (%) with quinacrine dihydrochloride [6]: 61%
- decrease of β-galactosidase activity (%) with retinoic acid [6]: 31%
- decrease of β-galactosidase activity (%) with theophylline monohydrate [6]: 6.5%
- decrease of β-galactosidase activity (%) with tolfenamic acid [6]: 7.7%
- decrease of β-galactosidase activity (%) with ursolic acid [6]: 16.5%

Compound: CCN(CC)C(=O)N1CCN(C)CC1 [Diethylcarbamazine citrate]
- MIC [1]: 1 mM
- ΔTm at 40 µM [5]: 2.1 ± 0.1 °C

Compound: Cn1c(=O)c2nc[nH]c2n(C)c1=O [Theophylline monohydrate]
- MIC [1]: 0.1 mM
- ΔTm at 40 µM [5]: 2.3 ± 0.1 °C

Compound: CCCOc1ccc(C(=O)OCCN(CC)CC)cc1N [Proparacaine hydrochloride]
- MIC [1]: 0.5 mM
- ΔTm at 40 µM [3, 7]: 27.9 ± 4.3 °C
- ΔTm at 40 µM [2, 8]: 24.5 ± 4.4 °C

Compound: O=C(O)c1cc2ccccc2c(Cc2c(O)c(C(=O)O)cc3ccccc23)c1O [Pamoic acid]
- MIC [1]: 0.25 mM (≈ 97.1 µg/mL)

Compound: CCc1oc2ccccc2c1C(=O)c1cc(Br)c(O)c(Br)c1 [Benzbromarone]
- MIC [1]: 1 mM (≈ 424 µg/mL)
- ΔTm at 40 µM ([4]; read-out: ΔTm (°C) ^1): 30 ± 1.6 °C

Compound: O=C(CCCN1CCC(O)(c2ccc(Cl)cc2)CC1)c1ccc(F)cc1 [Haloperidol]
- MIC [1]: 0.1 mM (≈ 37.6 µg/mL)

Compound: COc1ccc2cc(CCC(C)=O)ccc2c1 [Nabumetone]
- MIC [1]: 1 mM (≈ 228 µg/mL)
- ΔTm at 40 µM ([2]; read-out: ΔTm (°C) ^1): 13.8 ± 0.1 °C

Compound: C[C@H](CS)C(=O)N1CCC[C@H]1C(=O)O [Captopril]
- MIC [1]: 1 mM (≈ 217 µg/mL)
- ΔTm at 40 µM ([3]; read-out: ΔTm (°C) ^1): 9.2 ± 1.9 °C

Compound: CC1CCc2cc(F)cc3c(=O)c(C(=O)O)cn1c23 (centres unmarked) [Flumequine]
- MIC [1]: 0.1 mM (≈ 26.1 µg/mL)
- ΔTm at 40 µM ([2]; read-out: ΔTm (°C) ^1): 17.9 ± 2.4 °C

Compound: CCN(CC)CCCC(C)Nc1c2ccc(Cl)cc2nc2ccc(OC)cc12 (centres unmarked) [quinacrine]
- MIC [1]: 0.2 mM (≈ 80 µg/mL)
- ΔTm at 40 µM [3, 7]: 15.2 ± 1.7 °C
- ΔTm at 40 µM [2, 8]: 2.1 ± 0.9 °C

Compound: Cc1ccc(Cl)c(Nc2ccccc2C(=O)O)c1Cl [Meclofenamic acid]
- MIC [1]: 1 mM (≈ 296 µg/mL)
- ΔTm at 40 µM ([4]; read-out: ΔTm (°C) ^1): 22.9 ± 4.1 °C
